From publication PMC5190074, “BET inhibition as a new strategy for the treatment of gastric cancer” (Oncotarget, 2016)

Columns and labels:
Test in all cases: biochemical
Set-up in all cases: thermal shift assay (real-time PCR machine), melting temperature shift of recombinant bromodomains at 2 uM protein
ASH1L = molecular target: T1, ASH1L (Homo sapiens, UniProt Q9NR48)
T1 construct: bromodomain
Protocol: (§1) The recombinant bromodomains at 2 μM were mixed with 10 μM inhibitors. The assays and data evaluation for melting temperatures were performed using a Real-Time PCR Mx3005p machine (Stratagene) and the protocols previously described. Experiments profiling the final compound (PNZ5) were performed in quadruplicates. […] Since its discovery in our own labs, similar inhibitors have also been disclosed by researchers at Boehringer Ingelheim [reference: patent, WO 2014/154760 [31]]. The inhibitor contains two possible acetyl-lysine mimetic moieties. In order to obtain molecular insights on the interaction of the developed inhibitor, the crystal structure of the first bromodomain of BRD4 in complex with PNZ5 was solved at 1.85 Å (Figure 2C and Supplementary Table 4, 5FBX.pdb). The inhibitor, coordinating residues and water molecules were well defined by the electron density. The dimethylisoxazole moiety mimicked the acetyl lysine side chain and formed two canonical hydrogen-bond interactions with Asn140 and water mediated hydrogen-bond with Tyr 97 (Figure 2C). The common network of waters within the binding site was also conserved in the BRD4(1)-PNZ5 complex. The compound was further stabilized by lipophilic interactions with residues forming the binding site Leu92, Leu94, Ile146. The [compound left out] substituent was well accommodated next to the WPF shelf, as well as the N1-methyl substituent that formed hydrophobic interactions with Trp81. The carbonyl on the isoindolinone established a water-mediated hydrogen bond with Lys91.

ATAD2 = molecular target: T2, ATAD2 (Homo sapiens, UniProt Q6PL18)
T2 construct: bromodomain
Protocol: as §1

BAZ1A = molecular target: T3, BAZ1A (Homo sapiens, UniProt Q9NRL2)
T3 construct: bromodomain
Protocol: as §1

BRD2(1) = molecular target: T4, BRD2(1) (Homo sapiens, UniProt P25440)
T4 construct: bromodomain 1
Protocol: as §1

BRD2(2) = molecular target: T5, BRD2(2) (Homo sapiens, UniProt P25440)
T5 construct: bromodomain 2
Protocol: as §1

BRD7 = molecular target: T6, BRD7 (Homo sapiens, UniProt Q9NPI1)
T6 construct: bromodomain
Protocol: as §1

BRD9 = molecular target: T7, BRD9 (Homo sapiens, UniProt Q9H8M2)
T7 construct: bromodomain
Protocol: as §1

BRDT(1) = molecular target: T8, BRDT(1) (Homo sapiens, UniProt Q58F21)
T8 construct: bromodomain 1
Protocol: as §1

BRPF1A = molecular target: T9, BRPF1A (Homo sapiens, UniProt P55201)
T9 construct: gene BRPF1; isoform A bromodomain
Protocol: as §1

BRPF1B = molecular target: T10, BRPF1B (Homo sapiens, UniProt P55201)
T10 construct: gene BRPF1; isoform B bromodomain
Protocol: as §1

BRWD3(2) = molecular target: T11, BRWD3(2) (Homo sapiens, UniProt Q6RI45)
T11 construct: bromodomain 2
Protocol: as §1

CECR2 = molecular target: T12, CECR2 (Homo sapiens, UniProt Q9BXF3)
T12 construct: bromodomain
Protocol: as §1

MLL = molecular target: T13, MLL (Homo sapiens, UniProt Q03164)
T13 construct: gene KMT2A; bromodomain
Protocol: as §1

PB1(3) = molecular target: T14, PB1(3) (Homo sapiens, UniProt Q86U86)
T14 construct: gene PBRM1; bromodomain 3
T14 sequence (Q86U86 whole entry): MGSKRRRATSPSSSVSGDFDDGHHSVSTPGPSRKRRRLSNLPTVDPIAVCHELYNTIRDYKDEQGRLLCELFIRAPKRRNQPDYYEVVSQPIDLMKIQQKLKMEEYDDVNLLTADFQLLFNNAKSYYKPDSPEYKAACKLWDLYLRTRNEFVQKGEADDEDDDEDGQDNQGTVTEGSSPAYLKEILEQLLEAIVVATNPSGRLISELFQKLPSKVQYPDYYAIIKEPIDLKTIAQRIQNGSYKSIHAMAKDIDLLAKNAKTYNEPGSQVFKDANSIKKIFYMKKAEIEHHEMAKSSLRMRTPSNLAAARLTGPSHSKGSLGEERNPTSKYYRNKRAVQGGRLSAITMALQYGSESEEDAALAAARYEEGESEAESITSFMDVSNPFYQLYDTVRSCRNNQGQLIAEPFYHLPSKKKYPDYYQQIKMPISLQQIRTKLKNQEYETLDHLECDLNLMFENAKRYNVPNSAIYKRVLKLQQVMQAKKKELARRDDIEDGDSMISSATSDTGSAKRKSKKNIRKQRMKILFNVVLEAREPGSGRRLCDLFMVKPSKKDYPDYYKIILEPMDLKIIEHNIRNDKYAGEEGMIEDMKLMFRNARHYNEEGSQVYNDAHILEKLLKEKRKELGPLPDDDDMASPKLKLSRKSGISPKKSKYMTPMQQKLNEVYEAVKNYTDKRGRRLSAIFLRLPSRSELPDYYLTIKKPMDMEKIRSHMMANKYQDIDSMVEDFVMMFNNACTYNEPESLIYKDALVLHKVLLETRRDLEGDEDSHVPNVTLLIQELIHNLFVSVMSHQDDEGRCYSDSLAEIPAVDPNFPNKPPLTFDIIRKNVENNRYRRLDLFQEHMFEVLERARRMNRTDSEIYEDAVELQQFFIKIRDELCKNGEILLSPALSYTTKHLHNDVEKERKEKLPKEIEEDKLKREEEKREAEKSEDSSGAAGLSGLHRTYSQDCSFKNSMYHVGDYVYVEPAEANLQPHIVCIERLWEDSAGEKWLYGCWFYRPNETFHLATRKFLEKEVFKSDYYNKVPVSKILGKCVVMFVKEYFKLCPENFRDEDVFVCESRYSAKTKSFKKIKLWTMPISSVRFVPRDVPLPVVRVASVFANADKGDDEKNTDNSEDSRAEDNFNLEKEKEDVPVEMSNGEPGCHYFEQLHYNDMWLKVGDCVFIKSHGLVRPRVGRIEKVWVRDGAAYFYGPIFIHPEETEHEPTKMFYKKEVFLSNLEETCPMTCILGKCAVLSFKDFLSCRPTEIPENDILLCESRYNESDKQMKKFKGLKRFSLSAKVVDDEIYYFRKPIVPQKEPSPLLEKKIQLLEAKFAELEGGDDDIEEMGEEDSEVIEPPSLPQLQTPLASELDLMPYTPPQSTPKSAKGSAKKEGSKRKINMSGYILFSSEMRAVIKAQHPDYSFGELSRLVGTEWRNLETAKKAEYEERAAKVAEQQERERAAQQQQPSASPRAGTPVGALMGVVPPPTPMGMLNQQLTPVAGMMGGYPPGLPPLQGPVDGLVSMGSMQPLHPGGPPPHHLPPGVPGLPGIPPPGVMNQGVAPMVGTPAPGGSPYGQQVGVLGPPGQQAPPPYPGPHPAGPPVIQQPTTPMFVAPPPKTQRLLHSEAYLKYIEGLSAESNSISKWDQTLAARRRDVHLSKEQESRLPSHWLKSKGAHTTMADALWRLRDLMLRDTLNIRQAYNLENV
Protocol: as §1

PB1(4) = molecular target: T15, PB1(4) (Homo sapiens, UniProt Q86U86)
T15 construct: gene PBRM1; bromodomain 4
T15 sequence (Q86U86 whole entry): as above
Protocol: as §1

PB1(5) = molecular target: T16, PB1(5) (Homo sapiens, UniProt Q86U86)
T16 construct: gene PBRM1; bromodomain 5
T16 sequence (Q86U86 whole entry): as above
Protocol: as §1

TAF1(1) = molecular target: T17, TAF1(1) (Homo sapiens, UniProt P21675)
T17 construct: bromodomain 1
Protocol: as §1

TAF1(2) = molecular target: T18, TAF1(2) (Homo sapiens, UniProt P21675)
T18 construct: bromodomain 2
Protocol: as §1

TAF1L(2) = molecular target: T19, TAF1L(2) (Homo sapiens, UniProt Q8IZX4)
T19 construct: bromodomain 2
Protocol: as §1

TIF1-bromo = molecular target: T20, TIF1-bromo (Homo sapiens, UniProt O15164)
T20 construct: gene TRIM24; bromodomain
Protocol: as §1

Cc1noc(C)c1-c1ccc2c(c1)[C@H](c1ccccc1)N(C)C2=O [PNZ5]
ΔTm at 10 µM (ASH1L): 0.41 °C
ΔTm at 10 µM (ATAD2): 0.13 °C
ΔTm at 10 µM (BAZ1A): 1.2 °C
ΔTm at 10 µM (BRD2(1)): 7.94 °C
ΔTm at 10 µM (BRD2(2)): 8.13 °C
ΔTm at 10 µM (BRD7): 0.37 °C
ΔTm at 10 µM (BRD9): 1.85 °C
ΔTm at 10 µM (BRDT(1)): 6.19 °C
ΔTm at 10 µM (BRPF1A): 0.81 °C
ΔTm at 10 µM (BRPF1B): 0.89 °C
ΔTm at 10 µM (BRWD3(2)): 0.74 °C
ΔTm at 10 µM (CECR2): 0.19 °C
ΔTm at 10 µM (MLL): 0.49 °C
ΔTm at 10 µM (PB1(3)): 0.12 °C
ΔTm at 10 µM (PB1(4)): 0.36 °C
ΔTm at 10 µM (PB1(5)): 0.28 °C
ΔTm at 10 µM (TAF1(1)): 0.09 °C
ΔTm at 10 µM (TAF1(2)): 0.19 °C
ΔTm at 10 µM (TAF1L(2)): 0.51 °C
ΔTm at 10 µM (TIF1-bromo): 0.86 °C
